Where a name gives a salt, the structure may show the parent alone.
Columns and labels:
thrombin = conditions: Bajusz et al., J. Med. Chem. 1990; cited from earlier work
[1] = Simoons et al., Circulation 1994; cited from earlier work
Human plasma [2] = assay: Human plasma anticoagulation, thrombin time (TT); assay type: biochemical; conditions: concentration required to double the clotting time
Outline: (§1)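 Citrated human plasma + cpd (broad conc. range); instrument clot timing. PT: saline/Thromboplastin-C. APTT: Actin 120 s, then CaCl2 0.02M. TT: saline/bovine thrombin 10 NIH units/mL. Value = conc. doubling clotting time, linear extrapolation.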

t-PA = target: T1, t-PA (Homo sapiens, UniProt P00750); assay: Kass for t-PA, chromogenic substrate; assay type: biochemical
T1 construct: purchased American Diagnostica, Greenwich, Conn
Procedure: (§2) By substantially following the procedures described above for human thrombin, and using other human blood coagulation system serine proteases and proteases of the fibrinolytic system with the appropriate chromogenic substrates, identified below, selectivity of the compounds of the present invention with respect to the coagulation factor serine proteases and with respect to the fibrinolytic system serine proteases are evaluated as well as their substantial lack of interference with serine proteases of the fibrinolytic system. […] This would be important to the therapeutic use of such agents as an adjunct to streptokinase, t-PA or urokinase thrombolytic therapy and to the use of such agents as an endogenous fibrinolysis-sparing (with respect to t-PA and urokinase) antithrombotic agent. In addition to the lack of interference with the amidase activity of the fibrinolytic proteases, such fibrinolytic system sparing can be studied by the use of human plasma clots and their lysis by the respective fibrinolytic plasminogen activators.

[3] = Index of bioavailability (% relative activity from plasma TT, oral vs i.v.); assay type: in vivo; conditions: dose-adjusted AUC of plasma TT, p.o. vs i.v.
Procedure: Parke Davis) at 37° C. […] Assays are done in duplicate and averaged. […] Each sample population represented alternating sequential time points.

human thrombin = human thrombin (Homo sapiens, UniProt P00734); assay: Inhibition of thrombin amidase activity (Kass), chromogenic substrate; assay type: biochemical; conditions: association constant, mean over concentrations
Human plasmin = target: T2, Human plasmin (Homo sapiens, UniProt P00747); assay: Kass for plasmin, chromogenic substrate; assay type: biochemical
T2 construct: Human plasmin is purchased from Boehringer Mannheim, Indianapolis, Ind; purchased Boehringer Mannheim, Indianapolis, Ind
Procedure: as §2

Human plasma [4] = assay: Human plasma anticoagulation, activated partial thromboplastin time (APTT); assay type: biochemical; conditions: concentration required to double the clotting time
Outline: as §1

Human plasma [5] = assay: Human plasma anticoagulation, prothrombin time (PT); assay type: biochemical; conditions: concentration required to double the clotting time
Outline: as §1

factor Xa = factor Xa (Homo sapiens, UniProt P00742); assay: Kass for factor Xa, chromogenic substrate; assay type: biochemical
Procedure: as §2
(§3) Chromogenic substrates: N-Benzoyl-Ile-Glu-Gly-Arg-p-nitroanilide (for factor Xa); N-Cbz-D-Arg-Gly-Arg-p-nitroanilide (for factor IXa assay as the factor Xa substrate); Pyroglutamyl-Pro-Arg-p-nitroanilide (for Factor XIa and for aPC); H-D-Pro-Phe-Arg-p-nitroanilide (for factor XIIa); and Pyroglutamyl-Gly-Arg-p-nitroanilide (for urokinase); are purchased from KabiVitrnm, Stockholm, Sweden, or from Midwest Biotech, Fishers, Ind. Bovine trypsin is purchased from Worthington Biochemicals, Freehold, N.J., and human plasma kallikrein from Kabi Vitrum, Stockholm, Sweden. Chromogenic substrate H-D-Pro-Phe-Arg-p-nitroanilide for plasma kallikrein is purchased from Kabi Vitrum, Stockholm, Sweden. N-Benzoyl-Phe-Val-Arg-p-nitroanilide, the substrate for human thrombin and for trypsin, is synthesized according to procedures described above for the compounds of the present invention, using known methods of peptide coupling from commercially available reactants or purchased from Midwest Biotech, Fishers, Ind.

Bovine trypsin = target: T3, Bovine trypsin (Bos taurus, UniProt P00760); assay: Kass for trypsin, chromogenic substrate; assay type: biochemical
T3 construct: Bovine trypsin is purchased from Worthington Biochemicals, Freehold, N.J; purchased Worthington Biochemicals, Freehold, N.J
T3 sequence (P00760 24-246): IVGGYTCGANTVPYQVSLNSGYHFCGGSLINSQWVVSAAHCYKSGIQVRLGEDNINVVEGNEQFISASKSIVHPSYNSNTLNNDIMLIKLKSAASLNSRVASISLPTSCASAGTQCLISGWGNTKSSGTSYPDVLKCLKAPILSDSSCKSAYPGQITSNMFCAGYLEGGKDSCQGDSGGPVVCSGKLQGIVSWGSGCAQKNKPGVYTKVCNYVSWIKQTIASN
Procedure: as §2, §3

T1 sequence (P00750 36-562): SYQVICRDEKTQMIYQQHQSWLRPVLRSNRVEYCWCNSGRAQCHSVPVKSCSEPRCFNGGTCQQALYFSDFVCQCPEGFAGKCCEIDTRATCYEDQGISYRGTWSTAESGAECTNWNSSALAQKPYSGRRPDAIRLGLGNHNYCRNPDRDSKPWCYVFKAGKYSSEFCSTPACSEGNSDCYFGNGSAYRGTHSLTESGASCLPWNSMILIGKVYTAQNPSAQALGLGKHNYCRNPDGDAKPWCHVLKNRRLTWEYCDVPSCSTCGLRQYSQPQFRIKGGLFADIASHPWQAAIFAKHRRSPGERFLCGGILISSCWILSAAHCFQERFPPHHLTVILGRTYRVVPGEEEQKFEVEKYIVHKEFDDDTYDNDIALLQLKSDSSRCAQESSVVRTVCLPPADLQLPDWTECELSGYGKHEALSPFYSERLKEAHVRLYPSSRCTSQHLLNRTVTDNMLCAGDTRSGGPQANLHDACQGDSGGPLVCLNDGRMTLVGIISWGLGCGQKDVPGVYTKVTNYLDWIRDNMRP
Chain of factor Xa (P00742 235-488 limits assumed): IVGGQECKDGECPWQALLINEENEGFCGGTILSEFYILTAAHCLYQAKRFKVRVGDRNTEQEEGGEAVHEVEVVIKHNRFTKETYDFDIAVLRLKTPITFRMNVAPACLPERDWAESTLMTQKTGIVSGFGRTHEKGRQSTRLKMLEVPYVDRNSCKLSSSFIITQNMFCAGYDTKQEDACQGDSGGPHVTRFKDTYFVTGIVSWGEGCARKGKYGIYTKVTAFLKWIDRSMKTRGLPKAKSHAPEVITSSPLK
Chain of factor Xa (P00742 41-179 partner limits assumed): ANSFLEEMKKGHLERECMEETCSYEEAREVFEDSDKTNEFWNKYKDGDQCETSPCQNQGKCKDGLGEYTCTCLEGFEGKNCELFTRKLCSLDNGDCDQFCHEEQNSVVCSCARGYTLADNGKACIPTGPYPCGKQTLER
T2 sequence (P00747 581-810 limits assumed): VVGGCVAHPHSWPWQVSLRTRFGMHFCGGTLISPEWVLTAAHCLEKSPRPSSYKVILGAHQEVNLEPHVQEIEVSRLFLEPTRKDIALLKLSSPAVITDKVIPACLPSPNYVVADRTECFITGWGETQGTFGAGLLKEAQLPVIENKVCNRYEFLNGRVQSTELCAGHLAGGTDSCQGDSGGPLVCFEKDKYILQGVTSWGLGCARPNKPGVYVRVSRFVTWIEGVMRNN
T2 sequence (P00747 97-580 partner limits assumed): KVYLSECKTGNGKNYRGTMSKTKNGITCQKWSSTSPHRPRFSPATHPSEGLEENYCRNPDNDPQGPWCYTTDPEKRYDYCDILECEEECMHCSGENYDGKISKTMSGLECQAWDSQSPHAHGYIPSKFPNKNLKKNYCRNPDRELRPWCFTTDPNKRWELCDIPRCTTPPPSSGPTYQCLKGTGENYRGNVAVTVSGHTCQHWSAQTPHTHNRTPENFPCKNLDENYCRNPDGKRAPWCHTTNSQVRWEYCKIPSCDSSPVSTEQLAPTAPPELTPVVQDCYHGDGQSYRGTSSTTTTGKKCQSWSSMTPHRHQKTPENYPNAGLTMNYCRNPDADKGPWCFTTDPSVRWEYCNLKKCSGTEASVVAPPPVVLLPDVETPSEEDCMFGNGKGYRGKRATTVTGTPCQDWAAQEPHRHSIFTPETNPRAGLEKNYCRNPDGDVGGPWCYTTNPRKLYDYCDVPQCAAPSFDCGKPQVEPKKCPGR

## CC(C)(C)OC(=O)N[C@H](Cc1ccccc1)C(=O)N1CCC[C@H]1C(=O)N[C@H](C=O)CCCNC(=N)N [Boc-D-Phe-Pro-Arg-H]
thrombin
  direct inhibition of thrombin: potent direct inhibition of thrombin

## CN[C@H](Cc1ccccc1)C(=O)N1CCC[C@H]1C(=O)N[C@H](C=O)CCCNC(=N)N.O=S(=O)(O)O [D-MePhe-Pro-Arg-H sulfate]
[1]
  anticoagulant activity in man: anticoagulant in man

## CN[C@H](Cc1ccccc1)C(=O)N1CCC[C@H]1C(=O)N[C@H](C=O)CCCNC(=N)N [D-MePhe-Pro-Arg-H]
thrombin
  direct inhibition of thrombin: potent direct inhibition of thrombin

## N=C(N)NCCC[C@@H](C=O)NC(=O)[C@@H]1CCCN1C(=O)[C@H](N)Cc1ccccc1 [D-Phe-Pro-Arg-H]
thrombin
  direct inhibition of thrombin: potent direct inhibition of thrombin

## CCS(=O)(=O)N[C@H](Cc1ccccc1)C(=O)N1CCC[C@H]1C(=O)NCCCCNC(=N)N [Example 1, EtSO2 -D-Phe-Pro-Agm.HCl]
Human plasma [2]
  2x Clotting time TT: 250 ng/mL
t-PA
  Kass t-PA: 0.082
[3]
  % oral/i.v. activity (Rat): 8%

## D-hPro-N(PhCH2 CH2)Gly-p-NHCH2 -C6 H4 C(NH)NH2.2HCl [Example 21]
Human plasma [2]
  2x Clotting time TT: 160 ng/mL
t-PA
  Kass t-PA: 0.002 × 10^6 (L/mole)
Human thrombin
  Kass Human Thrombin: 3.6 × 10^6 (L/mole)
Human plasmin
  Kass Plasmin: 0.031 × 10^6 (L/mole)
Human plasma [4]
  2x Clotting time APTT: 2,000 ng/mL
Human plasma [5]
  2x Clotting time PT: 1,000 ng/mL
Factor Xa
  Kass Xa: 0.62 × 10^6 (L/mole)
Bovine trypsin
  Kass Trypsin: 0.96 × 10^6 (L/mole)

## D-hPro-Pro(4-cis-PhO)-p-NHCH2 -C6 H4 C(NH)NH2.2HCl [Example 22]
Human plasma [2]
  2x Clotting time TT: 170 ng/mL
t-PA
  Kass t-PA: 0.004 × 10^6 (L/mole)
Human thrombin
  Kass Human Thrombin: 3.0 × 10^6 (L/mole)
Human plasmin
  Kass Plasmin: 0.042 × 10^6 (L/mole)
Human plasma [4]
  2x Clotting time APTT: 2,300 ng/mL
Human plasma [5]
  2x Clotting time PT: 1,000 ng/mL
Factor Xa
  Kass Xa: 0.043 × 10^6 (L/mole)
Bovine trypsin
  Kass Trypsin: 8.5 × 10^6 (L/mole)

## EtSO2 -D-Phe-Pro-p-NHCH2 -C6 H4 C(=NH)NH2.HCl [Example 23]
Human plasma [2]
  2x Clotting time TT: 7 ng/mL
t-PA
  Kass t-PA: 0.31 × 10^6 (L/mole)
Human thrombin
  Kass Human Thrombin: 770 × 10^6 (L/mole)
Human plasmin
  Kass Plasmin: 0.44 × 10^6 (L/mole)
Human plasma [4]
  2x Clotting time APTT: 86 ng/mL
Human plasma [5]
  2x Clotting time PT: 120 ng/mL
Factor Xa
  Kass Xa: 0.14 × 10^6 (L/mole)
Bovine trypsin
  Kass Trypsin: 21 × 10^6 (L/mole)

## EtSO2 -Phg-cis-Ohi-p-NHCH2 C6 H4 C(NH)NH2.HCl [Example 44]
Human plasma [2]
  2x Clotting time TT: 4. ng/mL
t-PA
  Kass t-PA: 0.04
Human plasmin
  Kass Plasmin: 1.8
Human plasma [4]
  2x Clotting time APTT: 100 ng/mL
Human plasma [5]
  2x Clotting time PT: 170 ng/mL
Factor Xa
  Kass Xa: 0.66
